The values that follow come from article PMC8873464, “Tuning the rate of aggregation of hIAPP into amyloid using small-molecule modulators of assembly” (Nature Communications, 2022).

By Kd is commonly meant the free concentration of one partner at which half of the binding sites on the other are occupied at equilibrium, for simple one-to-one binding. Higher therefore signals lower affinity.

Assay type in all cases: binding
Assay [1] addresses T1, human islet amyloid polypeptide (wt hIAPP) (Homo sapiens, UniProt P10997).
T1 construct: gene IAPP; 37-residue synthetic peptide, amidated C-terminus, Cys-2/Cys-7 disulfide, monomeric
T1 sequence (P10997 34-70 limits assumed): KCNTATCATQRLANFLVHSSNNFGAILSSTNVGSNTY
The assay is described as follows: Tyr37 fluorescence quenching and native ESI-MS (weak adduct); ThT acceleration of aggregation; no SPR response, no significant NMR CSPs.

Assay [2] has as its target T1, human islet amyloid polypeptide (wt hIAPP). Nature of the assay: Tyr37 fluorescence quenching titration; also native ESI-MS, SPR (Kd […]), 2D NMR CSPs and ThT aggregation inhibition.
Assay [3] has the same target. Nature of the assay: Tyr37 fluorescence quenching titration; also SPR (Kd […]) and native ESI-MS/CID; known inhibitor used as control.

In the case of `O=C(Nc1ccccc1F)c1cnc(-c2ccccc2)nc1CCNC(=O)C1CCCCC1` [YX-A-1], the Kd in assay [1] is roughly 280 µM.

The molecule `CC(=O)N[C@H]1C[C@@H](c2ccc(NC(=O)Cn3nnc4ccccc43)cc2)O[C@@H](C(C)C)C1` [YX-I-1] yielded a Kd in assay [2] of 32 µM.

Take `O=C(O[C@@H]1Cc2c(O)cc(O)cc2O[C@@H]1c1cc(O)c(O)c(O)c1)c1cc(O)c(O)c(O)c1` [EGCG]: binding in assay [3] was characterised by a dissociation constant (Kd) of 13 µM.
